Measurements published in PubChem BioAssay AID1918937 (Molecular Pharmacology Branch, DTP, NCI, 2023).
Values joined by “and” are separate entries in the source; they are usually repeats but may differ in a detail not shown here. Equal entries are not always repeated.

System: 521955-158-R2-J5-PDC complex spheroid viability
Experiment: Anticancer human tumor 521955-158-R2-J5-PDC patient-derived pancreatic carcinoma cell line growth inhibition
Details: for viability, T/C: stronger effect = lower value
Summary of the method: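 Complex spheroids of tumor cells with HUVEC and human MSCs, exposed to iadademstat combined with other agents. Each agent tested in half-log steps from near clinical Cmax (else 10 microM top), DMSO ≤0.25%.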

[1] = curve of first compound, second compound 0.1 µM
[2] = curve of first compound, second compound 0.316 µM
[3] = curve of first compound, second compound 1 µM
[4] = curve of first compound, second compound 3.16 µM
[5] = curve of first compound, second compound 10 µM
[6] = second compound 0.1 µM, first compound 0.0316 µM
[7] = second compound 0.1 µM, first compound 0.1 µM
[8] = second compound 0.1 µM, first compound 0.316 µM
[9] = second compound 0.1 µM, first compound 1 µM
[10] = second compound 0.316 µM, first compound 0.0316 µM
[11] = second compound 0.316 µM, first compound 0.1 µM
[12] = second compound 0.316 µM, first compound 0.316 µM
[13] = second compound 0.316 µM, first compound 1 µM
[14] = second compound 1 µM, first compound 0.0316 µM
[15] = second compound 1 µM, first compound 0.1 µM
[16] = second compound 1 µM, first compound 0.316 µM
[17] = second compound 1 µM, first compound 1 µM
[18] = second compound 3.16 µM, first compound 0.0316 µM
[19] = second compound 3.16 µM, first compound 0.1 µM
[20] = second compound 3.16 µM, first compound 0.316 µM
[21] = second compound 3.16 µM, first compound 1 µM
[22] = second compound 10 µM, first compound 0.0316 µM
[23] = second compound 10 µM, first compound 0.1 µM
[24] = second compound 10 µM, first compound 0.316 µM
[25] = second compound 10 µM, first compound 1 µM
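Note: spheroids exposed to agents for seven days.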
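Throughout, for viability, T/C: percent of DMSO vehicle control luminescence viability.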

For `O=C(C=Cn1cnc(-c2cc(C(F)(F)F)cc(C(F)(F)F)c2)n1)NNc1cnccn1` + NC1CCC(NC2CC2c2ccccc2)CC1, the IC50 [1] was < 3.16 nM, the IC50 [2] was < 3.16 nM and the IC50 [3] was < 3.16 nM. For the same molecule, the IC50 [4] was < 3.16 nM, the IC50 [5] was < 3.16 nM and the viability, T/C (second compound 0.1 µM, first compound 0.00316 µM) was 40.4%. It also gave a viability, T/C (second compound 0.1 µM, first compound 0.01 µM) of 42%, a viability, T/C [6] of 45.4% and a viability, T/C [7] of 35.8%. The viability, T/C [8] was 19%, the viability, T/C [9] was 14.7% and the viability, T/C (second compound 0.316 µM, first compound 0.00316 µM) was 40.8%. It also gave a viability, T/C (second compound 0.316 µM, first compound 0.01 µM) of 33.4%, a viability, T/C [10] of 52.3% and a viability, T/C [11] of 40.6%. For the same molecule, the viability, T/C [12] was 21.5%, the viability, T/C [13] was 16.1% and the viability, T/C (second compound 1 µM, first compound 0.00316 µM) was 37.7%. It also gave a viability, T/C (second compound 1 µM, first compound 0.01 µM) of 31.5%, a viability, T/C [14] of 52.4% and a viability, T/C [15] of 38.4%. The viability, T/C [16] was 26.8%, the viability, T/C [17] was 17.2% and the viability, T/C (second compound 3.16 µM, first compound 0.00316 µM) was 40.2%. It also gave a viability, T/C (second compound 3.16 µM, first compound 0.01 µM) of 41.1%, a viability, T/C [18] of 36.1% and a viability, T/C [19] of 41.5%. The viability, T/C [20] was 21.6%, the viability, T/C [21] was 17.1% and the viability, T/C (second compound 10 µM, first compound 0.00316 µM) was 32.2%. It also gave a viability, T/C (second compound 10 µM, first compound 0.01 µM) of 29.3%, a viability, T/C [22] of 35.3% and a viability, T/C [23] of 29%. It also gave a viability, T/C [24] of 24.1% and a viability, T/C [25] of 13.3%.

`Nc1ncn(C2CC(O)C(CO)S2)c(=O)n1` (centres undefined) was tested, and the viability, T/C (compound 0.000949 µM) was 103% and 99.3%, the viability, T/C (compound 0.003 µM) was 105% and 110% and the viability, T/C (compound 0.00949 µM) was 104% and 105%. The viability, T/C (compound 0.03 µM) was 93.2% and 90.9%, the viability, T/C (compound 0.0949 µM) was 77.6% and 73.8% and the viability, T/C (compound 0.3 µM) was 41.2% and 53.5%. The IC50 (curve of compound) was 226 nM and > 300 nM.

With `CC1COCCN1c1cc(C2(S(C)(=N)=O)CC2)nc(-c2ccnc3[nH]ccc23)n1` (centres undefined) + NC1CCC(NC2CC2c2ccccc2)CC1 the IC50 [1] was 528 nM, the IC50 [2] was 505 nM and the IC50 [3] was 531 nM. The IC50 [4] was 500 nM, the IC50 [5] was 446 nM and the viability, T/C [6] was 104%. The viability, T/C [7] was 87.7%, the viability, T/C [8] was 76.6% and the viability, T/C [9] was 16.5%. The viability, T/C (second compound 0.1 µM, first compound 3.16 µM) was 12.6%, the viability, T/C (second compound 0.1 µM, first compound 10 µM) was 16.9% and the viability, T/C [10] was 88.7%. For the same molecule, the viability, T/C [11] was 82.8%, the viability, T/C [12] was 71% and the viability, T/C [13] was 19.3%. It also gave a viability, T/C (second compound 0.316 µM, first compound 3.16 µM) of 13.2%, a viability, T/C (second compound 0.316 µM, first compound 10 µM) of 16.1% and a viability, T/C [14] of 79.7%. For the same molecule, the viability, T/C [15] was 90.3%, the viability, T/C [16] was 74.7% and the viability, T/C [17] was 19.8%. It also gave a viability, T/C (second compound 1 µM, first compound 3.16 µM) of 12.3%, a viability, T/C (second compound 1 µM, first compound 10 µM) of 15.3% and a viability, T/C [18] of 97.6%. It also gave a viability, T/C [19] of 93.9%, a viability, T/C [20] of 71.5% and a viability, T/C [21] of 17.6%. The viability, T/C (second compound 3.16 µM, first compound 3.16 µM) was 11.3%, the viability, T/C (second compound 3.16 µM, first compound 10 µM) was 14.8% and the viability, T/C [22] was 85%. The viability, T/C [23] was 81.6%, the viability, T/C [24] was 64.4% and the viability, T/C [25] was 16.2%. For the same molecule, the viability, T/C (second compound 10 µM, first compound 3.16 µM) was 12.3% and the viability, T/C (second compound 10 µM, first compound 10 µM) was 16.7%.

In the case of `O=C(c1cc(Cc2n[nH]c(=O)c3ccccc23)ccc1F)N1CCN(C(=O)C2CC2)CC1`, the viability, T/C (compound 0.0316 µM) is reported as 95.7% and 102%, the viability, T/C (compound 0.1 µM) is reported as 103% and 100% and the viability, T/C (compound 0.316 µM) is reported as 100% and 104%. The viability, T/C (compound 1 µM) was 100% and 97.1%, the viability, T/C (compound 3.16 µM) was 90.8% and 96.1% and the viability, T/C (compound 10 µM) was 55.5% and 78.5%. For the same molecule, the IC50 (curve of compound) was > 10000 nM.
